One experiment deals with A. baumannii 5973. The experiment can be described thus: Broth microdilution MIC. In kind it is cell-based, Acinetobacter baumannii. Conditions: A. baumannii 5973, Clinical isolate. Here is the method: (§1) Antibacterial activity of compounds MDN-0057, MDN-0058, MDN-0059 and MDN-0060 was evaluated using the broth microdilution methodology. This method is used to determine minimum inhibitory concentrations (MICs) which are defined as the lowest concentration of an antimicrobial compound that will inhibit the visible growth of a microorganism after overnight incubation.
(§2) In the microbroth dilution assay, microorganisms were selected by streaking bacteria culture from a cryovial into Mueller Hinton II (MHII) agar plate(s) and incubate overnight at 37° C. Thereafter, 3 to 5 characteristic fresh colonies were selected and suspended in 25 mL of MHII broth media for 2 hours shaking at 220 rpm. The 2 hour broth cultures were adjusted to an optical density of 0.111 at 660 nm and then diluted to 1:100 in order to obtain assay inoculums.
(§3) The four compounds evaluated were serially diluted in 100% DMSO with a dilution factor of 2 to provide 10 compound concentrations starting at 8 mg/mL.
(§4) For the assays, 90 μL/well of the appropriated diluted inoculum were mixed with 1.6 μL/well of each compound concentration and 8.4 μL/well of MHII broth media, resulting in an additional dilution of these compounds to yield concentrations in the assay wells from 128 μg/mL to 0.25 μg/mL. After that, the assay plates were read in a Tecan Ultraevolution spectrophotometer at 612 nm for T0 (zero time). Then, the plates were statically incubated at 37° C. for 20 hours. After incubation, they were shaken in a DPC Micromix-5 and read again for Tf (final time). Percentage of growth inhibition was calculated using the following normalization:
(§5) % Inhibition=[1-[(TfSample-T0Sample)−(TfBlank-T0blank)/(TfGrowth-T0Growth)−(TfBlank-T0blank)]×100. • Where, • T0 Sample=the absorbance of the strain growth in the presence of sample measured at zero time (before incubation). • Tf Sample=the absorbance of the strain growth in the presence of sample measured at final time (after incubation) • T0 Growth=the absorbance of the strain growth in the absence of sample measured at zero time (before incubation). • Tf Growth=the absorbance of the strain growth in the absence of sample measured at final time (after incubation). • T0 Blank=the absorbance of the broth medium (blank) measured at zero time (before incubation). • Tf Blank=the absorbance of the broth medium (blank) measured at final time (after incubation).

In a further experiment the test system is P. aeruginosa ATCC 27853. Kind of experiment: Broth microdilution MIC. Format: cell-based, Pseudomonas aeruginosa. The settings on record: P. aeruginosa ATCC 27853, wild type. The protocol: as §1, §2, §3, §4, §5
In experiment [1] the test system is Escherichia coli acrAB::Tn903 (CB-219). Kind of experiment: Micro RI (resistance) bioassay on E. coli CB-219. In kind it is cell-based. The protocol:
The frequency of resistance to MDN-0057 and MDN-0058 was assessed on Escherichia coli acrAB::Tn903 (CB-219) and wild type (WT) Acinetobacter baumannii (ATCC BAA-747). For this purpose, the Minimum Inhibitory Concentration of MDN-0057 versus each strain was determined by broth microdilution as described in Clinical Laboratory Standards Institute publication M07-A9, Vol. 32, No. 2., “Methods for Dilution Antimicrobial Susceptibility Tests for Bacteria that Grow Aerobically; Approved Standard—Ninth Edition,” January 2012. Six-well plates containing Mueller Hinton II agar (5 mL per well) were prepared with MDN-0057 or MDN-0058 at concentrations 4-fold and 8-fold above the MIC. Cultures were grown to late log phase and spread on the agar. Plates were incubated at 37° C. and examined after one and two days of incubation.
Six to eight isolates from each species were obtained by re-streaking growth from the plates on antibiotic-free tryptic soy agar plates, and MICs of MDN-0057 versus the isolates were subsequently determined. MICs of the E. coli isolates were elevated at least 16-64-fold relative to their parent strain, CB-219.

The next experiment deals with E. coli ATCC 25922. The experiment can be described thus: Broth microdilution MIC. Format: cell-based, Escherichia coli. Conditions: E. coli ATCC 25922, wild type. Here is the method: as §1, §2, §3, §4, §5
Another experiment deals with E. coli 219. The experiment can be described thus: Broth microdilution MIC. In kind it is cell-based, Escherichia coli. The settings on record: E. coli 219, ΔAcrAB::Tn903kan. Here is the method:
as §1, §2, §3, §4, §5

Another experiment has as its system A. baumannii 2443. The experiment can be described thus: Broth microdilution MIC. Format: cell-based, Acinetobacter baumannii. The settings on record: A. baumannii 2443, Clinical isolate. Here is the method:
as §1, §2, §3, §4, §5

Experiment [2] deals with A. baumannii ATCC BAA-747. The experiment can be described thus: Broth microdilution MIC. The settings on record: A. baumannii ATCC BAA-747, Clinical isolate. In kind it is cell-based, Acinetobacter baumannii. Here is the method:
as §1, §2, §3, §4, §5

The next experiment has as its system A. baumannii 2445. Kind of experiment: Broth microdilution MIC. Format: cell-based, Acinetobacter baumannii. Conditions: A. baumannii 2445, ΔadeABC. Here is the method:
as §1, §2, §3, §4, §5

In a further experiment the test system is A. baumannii 2444. Kind of experiment: Broth microdilution MIC. Format: cell-based, Acinetobacter baumannii. Conditions: A. baumannii 2444, ΔadellJK. The protocol: as §1, §2, §3, §4, §5
The next experiment concerns A. baumannii 2446. Kind of experiment: Broth microdilution MIC. In kind it is cell-based, Acinetobacter baumannii. The settings on record: A. baumannii 2446, ΔadeABC, ΔadellJK. Here is the method:
as §1, §2, §3, §4, §5

A further experiment relates to A. baumannii ATCC 19606. The experiment can be described thus: Broth microdilution MIC. In kind it is cell-based, Acinetobacter baumannii. Conditions: A. baumannii ATCC 19606, Clinical isolate. The protocol: as §1, §2, §3, §4, §5
The next experiment relates to K. pneumoniae 847. The experiment can be described thus: Broth microdilution MIC. In kind it is cell-based, Klebsiella pneumoniae. The settings on record: K. pneumoniae 847, Clinical isolate. The protocol: as §1, §2, §3, §4, §5
For a further experiment, the system named is K. pneumoniae 21. The experiment can be described thus: Broth microdilution MIC. In kind it is cell-based, Klebsiella pneumoniae. The settings on record: K. pneumoniae 21, permeable strain. The protocol: as §1, §2, §3, §4, §5
Another experiment has as its system S. aureus ATCC 29213. The experiment can be described thus: Broth microdilution MIC. In kind it is cell-based, Staphylococcus aureus. The protocol: as §1, §2, §3, §4, §5
For the next experiment, the system named is P. aeruginosa 839. Kind of experiment: Broth microdilution MIC. Format: cell-based, Pseudomonas aeruginosa. Conditions: P. aeruginosa 839, ΔMexAB-OprM. The protocol:
as §1, §2, §3, §4, §5

In brackets after ≈: the same amount, converted by molar mass.

As to `[C-]#[N+]C(=C)C(Cc1ccc(OC)cc1)([N+]#[C-])C1CC(O)CCC1OC(C)=O` (stereo not shown) [MDN-0059], the MIC was 0.5 to 1 µg/mL against A. baumannii 5973 and 16 µg/mL (≈ 43.4 µM) in the experiment with P. aeruginosa ATCC 27853.
In the case of `[C-]#[N+]C(=C)C(Cc1ccc(OC)cc1)([N+]#[C-])C1CC(O)C=CC1OC(C)=O` (stereo not shown) [MDN-0060], the figures for the minimal inhibitory concentration (MIC) in the experiment on A. baumannii 5973 and with P. aeruginosa ATCC 27853 were 1 to 2 µg/mL and 32 to 64 µg/mL, respectively.
As to `[C-]#[N+]C(=C)C(Cc1ccc(OC)cc1)([N+]#[C-])C1CC(O)C=CC1OC(=O)CO` (stereo not shown) [MDN-0058], the MIC in experiment [1] (E. coli_219, Micro RI, Isolate #1_4X) is 0.25 µg/mL (≈ 0.654 µM); in [1] (E. coli_219, Micro RI, Isolate #2_8X), 0.25 µg/mL (≈ 0.654 µM); in experiment [1] (E. coli_219, Micro RI, Isolate #3_4X), 0.25 µg/mL (≈ 0.654 µM); in [1] (E. coli_219, Micro RI, Isolate #4_4X), 0.25 µg/mL (≈ 0.654 µM); in experiment [1] (E. coli_219, Micro RI, Isolate #5_8X), 0.25 µg/mL (≈ 0.654 µM); in [1] (E. coli_219, Parent), 0.25 to 0.5 µg/mL. Also, the MIC in the experiment with E. coli ATCC 25922 was 16 µg/mL (≈ 41.8 µM); with E. coli 219, 0.25 to 0.5 µg/mL; with A. baumannii 2443 it was 2 µg/mL (≈ 5.23 µM); against A. baumannii 5973, 0.25 µg/mL (≈ 0.654 µM); in experiment [2], 1 to 16 µg/mL; against A. baumannii 2445, 2 to 8 µg/mL. Further, the MIC against A. baumannii 2444 was 0.25 to 1 µg/mL; against A. baumannii 2446 it was less than 0.06 µg/mL; against A. baumannii ATCC 19606, 2 to 8 µg/mL; in the experiment with K. pneumoniae 847, 64 µg/mL (≈ 167 µM); with K. pneumoniae 21, 0.5 µg/mL (≈ 1.31 µM); with S. aureus ATCC 29213 (S. aureus ATCC 29213, wild type), greater than 128 µg/mL. In addition, the values for the minimum inhibitory concentration (MIC) with P. aeruginosa ATCC 27853 and with P. aeruginosa 839 were 64 µg/mL (≈ 167 µM) and 1 to 4 µg/mL, respectively. Besides, in the experiment on S. aureus ATCC 29213, the “MIC against S. aureus (No activity)” value amounted to 128 µg/mL (≈ 335 µM).

Source of the values: patent US20160185717A1, “COMPOUNDS WITH ANTIBACTERIAL ACTIVITY” (FUNDACIÓN MEDINA. CENTRO DE EXCELENCIA EN INVESTIGACIÓN DE …, priority 2013, published 2016).
